Data as given in article PMC10600239, “Selective MCL-1 inhibitor ABBV-467 is efficacious in tumor models but is associated with cardiac troponin increases in patients” (Communications Medicine, 2023).
Like-named read-outs stand apart in the source and are kept apart here.

Key:
[1] = target: off-target receptors, ion channels, and transporters (Homo sapiens, UniProt Q9H4B4); assay: Off-target profiling (Supplementary Data 1); details: TR-FRET Kinome; Invitrogen A-1224615.7 .2(Subs Conc)
[2] = target: off-target receptors, ion channels, and transporters (Homo sapiens, UniProt P35348); assay: Off-target profiling (Supplementary Data 1)
[3] = target: off-target receptors, ion channels, and transporters (Homo sapiens, UniProt P37231); assay: Off-target profiling (Supplementary Data 1); details: Bioprofiling 6pt Ag
[4] = target: off-target receptors, ion channels, and transporters (Homo sapiens, UniProt Q02750); assay: Off-target profiling (Supplementary Data 1); details: TR-FRET Kinome; Invitrogen A-1169612.6 .025(Subs Conc)
[5] = target: off-target receptors, ion channels, and transporters (Homo sapiens, UniProt Q9BYT3); assay: Off-target profiling (Supplementary Data 1); details: TR-FRET Kinome; Invitrogen A-1167389.7 .05(Subs Conc)
BCL-2 = BCL-2 (Homo sapiens, UniProt P10415); assay: Time-resolved FRET binding assay; details: TR-FRET
Protocol: (§1) Binding affinities for MCL-1, BCL-2, BCL-XL, BCL-W, and BCL2-A1 were determined using a time-resolved fluorescence resonance energy transfer (FRET) assay. Test compounds were serially diluted in DMSO starting at […] (20× starting concentration; 100% DMSO followed by a 1:10 dilution of the compound DMSO plate into assay buffer); 10 µL of the compound in 10% DMSO was then transferred into a 384-well plate (low-volume Corning #3673 assay plate). Glutathione S-transferase (GST)-tagged recombinant BCL-2, BCL-XL, MCL-1, BCL-W, or BCL2-A1 protein (1 nM each) were mixed with 100 nM Oregon Green™-labeled f-BAK peptide probe and 1 nM Tb-labeled anti-GST antibody were mixed. Then 10 µL of a 2× protein/probe/antibody mix was added to each well of increasing concentrations of test compound in assay buffer (20 mM potassium phosphate, pH 7.6, 50 mM NaCl, 1 mM ethylenediaminetetraacetic acid disodium salt dihydrate, 0.05% pluronic acid F-68, 1 mM DL-dithiothreitol) at room temperature (final concentrations listed in Supplementary Table S2). The samples were then mixed on a shaker for 1 min and incubated for an additional 1 h at room temperature. For each assay plate, a probe/antibody and protein/antibody/probe mixture were included as a negative and a positive control, respectively. Fluorescence was measured on the EnVision™ (Perkin Elmer) using a 340/35-nm excitation filter and 520/525- (F-Bak) and 495/510-nm (Tb-labeled anti-glutathione S-transferase [GST] antibody) emission filters. Dissociation constants were determined using Wang’s equation[35]. The time-resolved FRET assay can be performed in the presence of varying concentrations of human serum to determine apparent half-maximal inhibitory concentration after serum protein binding.

BCL-W = target: T1, BCL-W (Homo sapiens, UniProt Q92843); assay: Time-resolved FRET binding assay
T1 sequence (Q92843 1-193): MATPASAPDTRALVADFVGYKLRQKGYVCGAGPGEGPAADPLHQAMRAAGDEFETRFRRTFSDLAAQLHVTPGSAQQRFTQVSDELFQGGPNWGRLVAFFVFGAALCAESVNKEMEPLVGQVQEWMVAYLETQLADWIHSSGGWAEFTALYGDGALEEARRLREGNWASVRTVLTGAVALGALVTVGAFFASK
Protocol: as §1

BCL-XL = BCL-XL (Homo sapiens, UniProt Q07817); assay: Time-resolved FRET binding assay
Protocol: as §1

[6] = Phase 1 first-in-human study (NCT04178902): efficacy (IMWG criteria, immunoglobulin, free light chain); format: in vivo; details: for Kappa Lt Chain,Free/Lambda Lt Chain,Free / Immunoglobulin G: patient; for Kappa Lt Chain,Free/Lambda Lt Chain,Free: normal range 0.22-1.52; for Immunoglobulin G: normal range 5.65-17.65
Text: This FIH study (NCT04178902) for ABBV-467 was a multicenter, open-label, dose-escalation study enrolling patients aged ≥18 years who had R/R MM, with the option to enroll R/R AML once recommended phase 2 dose (RP2D) was established. The study design was originally planned to consist of 2 parts: dose escalation and dose expansion, including a minimum of 6 patients treated during dose escalation at what was ultimately to be declared the RP2D. Patients must have received 3 or more prior lines of therapy including at least 1 or more immunomodulatory agents, 1 or more proteasome inhibitors, and 1 or more anti-CD38 monoclonal antibodies. Other eligibility criteria included: Eastern Cooperative Oncology Group performance status ≤2, measurable disease as defined by International Myeloma Working Group (IMWG) consensus criteria, an echocardiogram with an ejection fraction ≥50%, and adequate hematologic, hepatic, and renal function. The prespecified primary objectives were to characterize the safety and toxicity profiles, to establish the RP2D, and to determine the pharmacokinetic (PK) profile of ABBV-467 monotherapy. Safety evaluations included, but were not limited to, adverse event (AE) monitoring, physical examinations, vital sign measurements, electrocardiogram (ECG), cardiac enzyme monitoring, and clinical laboratory testing (hematology and chemistry) as a measure of safety and tolerability for the entire study duration. Parameters used to determine PK included maximum observed plasma concentration (Cmax), terminal elimination half-life (t1/2), area under the plasma concentration-time curve (AUC) from time 0 to time of last measurable concentration (AUCt), AUC from time 0 to infinity (AUC0-∞), and clearance using non-compartmental methods. Secondary objectives were preliminary evaluation of the efficacy of ABBV-467 in R/R MM and R/R AML. Preliminary efficacy endpoints were overall response rate (ORR), clinical benefit rate (CBR), and duration of response (DOR) as evaluated per adapted IMWG[36] criteria for MM and per adapted International Working Group (IWG)[37] and European Leukemia Net (ELN)[38] criteria for AML.

BCL-2, sequence (P10415 whole entry): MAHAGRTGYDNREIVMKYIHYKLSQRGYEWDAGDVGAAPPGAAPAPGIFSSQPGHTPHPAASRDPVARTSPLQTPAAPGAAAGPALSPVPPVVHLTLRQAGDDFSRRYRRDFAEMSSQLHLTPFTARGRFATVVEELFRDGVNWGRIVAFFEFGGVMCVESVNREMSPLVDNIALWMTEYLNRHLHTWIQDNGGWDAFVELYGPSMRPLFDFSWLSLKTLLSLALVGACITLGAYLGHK
BCL-XL, sequence (Q07817 whole entry): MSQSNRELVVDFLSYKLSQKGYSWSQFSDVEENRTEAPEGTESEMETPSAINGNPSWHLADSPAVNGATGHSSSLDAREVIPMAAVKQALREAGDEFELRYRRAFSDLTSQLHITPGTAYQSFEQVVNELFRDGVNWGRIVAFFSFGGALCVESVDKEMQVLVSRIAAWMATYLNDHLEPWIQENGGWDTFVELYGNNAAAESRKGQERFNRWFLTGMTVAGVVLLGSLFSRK
off-target receptors, ion channels, and transporters (Homo sapiens, UniProt P35348), sequence (P35348 whole entry): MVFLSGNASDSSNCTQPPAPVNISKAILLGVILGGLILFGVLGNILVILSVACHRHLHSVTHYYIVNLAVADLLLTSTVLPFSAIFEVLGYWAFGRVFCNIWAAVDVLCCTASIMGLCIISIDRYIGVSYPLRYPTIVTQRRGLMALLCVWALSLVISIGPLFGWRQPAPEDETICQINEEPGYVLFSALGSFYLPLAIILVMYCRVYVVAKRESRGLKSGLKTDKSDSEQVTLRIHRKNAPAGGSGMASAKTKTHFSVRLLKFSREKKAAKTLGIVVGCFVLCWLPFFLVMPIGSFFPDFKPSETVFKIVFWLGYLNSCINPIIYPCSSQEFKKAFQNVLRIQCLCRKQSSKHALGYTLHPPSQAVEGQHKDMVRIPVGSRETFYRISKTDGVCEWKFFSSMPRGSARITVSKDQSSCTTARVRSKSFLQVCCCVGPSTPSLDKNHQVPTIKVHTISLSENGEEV
off-target receptors, ion channels, and transporters (Homo sapiens, UniProt Q02750), sequence (Q02750 whole entry): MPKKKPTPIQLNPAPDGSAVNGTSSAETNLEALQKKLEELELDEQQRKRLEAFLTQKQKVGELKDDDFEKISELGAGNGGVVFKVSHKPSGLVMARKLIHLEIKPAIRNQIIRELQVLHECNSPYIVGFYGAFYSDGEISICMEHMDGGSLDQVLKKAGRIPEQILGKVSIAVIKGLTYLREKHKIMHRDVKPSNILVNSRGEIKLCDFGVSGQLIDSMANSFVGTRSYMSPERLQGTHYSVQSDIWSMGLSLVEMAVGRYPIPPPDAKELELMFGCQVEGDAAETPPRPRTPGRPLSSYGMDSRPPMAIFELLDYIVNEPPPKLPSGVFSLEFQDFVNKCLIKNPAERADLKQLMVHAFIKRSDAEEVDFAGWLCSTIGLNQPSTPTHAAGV
off-target receptors, ion channels, and transporters (Homo sapiens, UniProt Q9H4B4), sequence (Q9H4B4 whole entry): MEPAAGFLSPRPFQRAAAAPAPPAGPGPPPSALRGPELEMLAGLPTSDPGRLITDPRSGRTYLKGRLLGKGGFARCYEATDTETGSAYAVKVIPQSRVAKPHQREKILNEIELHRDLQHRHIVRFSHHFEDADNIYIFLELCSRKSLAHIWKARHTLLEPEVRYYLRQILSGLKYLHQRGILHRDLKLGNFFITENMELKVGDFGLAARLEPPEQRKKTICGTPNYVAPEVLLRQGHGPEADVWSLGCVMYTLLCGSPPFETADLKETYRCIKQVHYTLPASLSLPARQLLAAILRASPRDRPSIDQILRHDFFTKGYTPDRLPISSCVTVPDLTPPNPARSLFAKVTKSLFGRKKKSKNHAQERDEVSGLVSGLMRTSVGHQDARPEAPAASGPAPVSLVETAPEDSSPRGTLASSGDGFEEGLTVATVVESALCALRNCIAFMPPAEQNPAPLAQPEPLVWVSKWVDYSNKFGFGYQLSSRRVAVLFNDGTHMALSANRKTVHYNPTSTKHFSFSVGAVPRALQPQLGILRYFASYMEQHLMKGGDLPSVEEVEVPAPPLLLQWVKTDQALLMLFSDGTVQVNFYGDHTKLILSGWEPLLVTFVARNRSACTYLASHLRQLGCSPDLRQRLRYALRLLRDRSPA
off-target receptors, ion channels, and transporters (Homo sapiens, UniProt P37231), sequence (P37231 whole entry): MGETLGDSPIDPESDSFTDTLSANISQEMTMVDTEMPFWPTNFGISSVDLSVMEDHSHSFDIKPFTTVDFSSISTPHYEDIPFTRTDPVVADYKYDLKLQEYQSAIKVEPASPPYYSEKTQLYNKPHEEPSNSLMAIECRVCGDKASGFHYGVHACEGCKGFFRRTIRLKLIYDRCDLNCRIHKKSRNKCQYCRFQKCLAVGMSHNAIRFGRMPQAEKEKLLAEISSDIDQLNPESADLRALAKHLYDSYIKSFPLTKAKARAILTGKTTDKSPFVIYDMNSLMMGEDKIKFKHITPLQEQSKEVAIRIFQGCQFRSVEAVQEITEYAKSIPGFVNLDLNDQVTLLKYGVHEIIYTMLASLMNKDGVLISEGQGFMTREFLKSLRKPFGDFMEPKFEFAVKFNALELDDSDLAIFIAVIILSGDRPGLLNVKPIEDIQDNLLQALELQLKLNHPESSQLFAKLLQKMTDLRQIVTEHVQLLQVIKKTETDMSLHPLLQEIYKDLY
off-target receptors, ion channels, and transporters (Homo sapiens, UniProt Q9BYT3), sequence (Q9BYT3 whole entry): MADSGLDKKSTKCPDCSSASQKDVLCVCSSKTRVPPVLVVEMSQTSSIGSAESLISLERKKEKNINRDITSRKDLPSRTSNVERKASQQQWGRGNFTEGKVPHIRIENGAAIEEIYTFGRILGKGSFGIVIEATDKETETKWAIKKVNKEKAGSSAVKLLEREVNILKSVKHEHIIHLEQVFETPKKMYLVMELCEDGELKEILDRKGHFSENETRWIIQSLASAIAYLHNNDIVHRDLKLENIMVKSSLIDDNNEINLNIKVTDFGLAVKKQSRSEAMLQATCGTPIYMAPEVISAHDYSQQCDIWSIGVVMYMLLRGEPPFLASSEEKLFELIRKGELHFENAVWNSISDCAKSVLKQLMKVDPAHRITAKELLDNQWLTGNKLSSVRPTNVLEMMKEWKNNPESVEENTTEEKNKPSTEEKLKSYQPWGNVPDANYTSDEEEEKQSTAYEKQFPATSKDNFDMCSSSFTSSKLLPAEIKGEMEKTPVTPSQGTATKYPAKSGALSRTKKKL

## Cc1c(Cl)c2c(Cl)c(C)c1-c1c(-c3ccc(F)cc3)sc3ncnc(c13)O[C@@H](C(=O)O)Cc1cc(ccc1OCc1ccnc(-c3ccc(OC[C@H]4COCCO4)cc3)n1)OC[C@@H](CN1CCN(C)CC1)O2 [ABBV-467]
[1]
  Plk3 - IC50: > 10000 nM
[2]; read-out: Alpha1A CHO Human - EC50, Bioprofiling 6pt Ag
  EC50: > 10000 nM
[2]; read-out: Alpha1A CHO Human - IC50, Bioprofiling 6pt Antag, A-61603
  IC50: > 10000 nM
[3]
  PPARgamma Human - EC50: > 10000 nM
[4]
  MEK1 - IC50: > 10000 nM
[5]
  STK33 - IC50: > 10000 nM
BCL-2; arithmetic mean, read-out: Arithmetic Mean Ki, BCL-2
  Ki: > 642 nM
BCL-2; individual determinations, read-out: Individual Ki, BCL-2
  Ki: > 642 nM
BCL-W; TR-FRET, arithmetic mean, read-out: Arithmetic Mean Ki, BCL-W
  Ki: > 247 nM
BCL-W; TR-FRET, individual determinations, read-out: Individual Ki, BCL-W
  Ki: > 247 nM
BCL-W; read-out: TR-FRET, Ki, nM BCL-W
  Ki: > 247 nM
BCL-XL; TR-FRET, arithmetic mean, read-out: Arithmetic Mean Ki, BCL-XL
  Ki: > 376 nM
BCL-XL; TR-FRET, individual determinations, read-out: Individual Ki, BCL-XL
  Ki: > 376 nM
BCL-XL; read-out: TR-FRET, Ki, nM BCL-XL
  Ki: > 376 nM
[6]; 1 patient, […] dose level
  duration of stable disease: approximately 8 months
[6]; 8 patients with R/R MM
  objective responses: No objective responses
[6]; LBDY 1
  Kappa Lt Chain,Free/Lambda Lt Chain,Free: 31.35 RATIO
  Immunoglobulin G: 28.1 g/L
[6]; LBDY 29
  Kappa Lt Chain,Free/Lambda Lt Chain,Free: 25.56 RATIO
  Immunoglobulin G: 26.9 g/L
[6]; LBDY 57
  Kappa Lt Chain,Free/Lambda Lt Chain,Free: 23.38 RATIO
  Immunoglobulin G: 23.3 g/L
[6]; LBDY 85
  Kappa Lt Chain,Free/Lambda Lt Chain,Free: 6.92 RATIO
  Immunoglobulin G: 28.9 g/L
[6]; LBDY 115
  Kappa Lt Chain,Free/Lambda Lt Chain,Free: 6.82 RATIO
  Immunoglobulin G: 30.6 g/L
[6]; LBDY 143
  Kappa Lt Chain,Free/Lambda Lt Chain,Free: 7.51 RATIO
  Immunoglobulin G: 29.6 g/L
[6]; LBDY 171
  Kappa Lt Chain,Free/Lambda Lt Chain,Free: 8.26 RATIO
  Immunoglobulin G: 24.4 g/L
[6]; LBDY 199
  Kappa Lt Chain,Free/Lambda Lt Chain,Free: 3.99 RATIO
  Immunoglobulin G: 40.2 g/L
[6]; LBDY 227
  Kappa Lt Chain,Free/Lambda Lt Chain,Free: 5.42 RATIO
  Immunoglobulin G: 29.5 g/L
[6]; LBDY 238
  Kappa Lt Chain,Free/Lambda Lt Chain,Free: 8.01 RATIO
  Immunoglobulin G: 32.9 g/L
[6]; LBDY -6
  Kappa Lt Chain,Free/Lambda Lt Chain,Free: 31.47 RATIO
  Immunoglobulin G: 23.8 g/L
